Experiment [1] has as its system MCF7R. Kind of experiment: Cytotoxicity was evaluated at 1 uM concentration in MCF7-R cell line when co-administered with Paclitaxel. The experiment is classed as functional, cell-based. Conditions: Homo sapiens.
For experiment [2], the system named is MCF7R. Kind of experiment: Compound was evaluated for multi-drug resistance (MDR) reversal at 1 uM concentration in MCF7-R cell line when co-administered with Paclitaxel. The experiment is classed as functional, Homo sapiens.
Experiment [3] relates to MDA-MB-435. As to the kind of experiment: Cytotoxicity was evaluated at 1 uM concentration in MDA 435/LCC6-MDR cell line when co-administered with Paclitaxel. The experiment is classed as functional, cell-based. Conditions: Homo sapiens.
The subject of experiment [4] is MDA-MB-435. Kind of experiment: Compound was evaluated for multi-drug resistance (MDR) reversal at 1 uM concentration in MDA 435/LCC6-MDR cell line when co-administered with Paclitaxel. The experiment is classed as functional, Homo sapiens.
The test system of experiment [5] is MCF7R. Kind of experiment: Cytotoxicity was evaluated at 3 uM concentration in MCF7-R cell line when co-administered with Paclitaxel. The experiment is classed as functional, cell-based. Conditions: Homo sapiens.
Experiment [6] deals with MCF7R. Kind of experiment: Compound was evaluated for multi-drug resistance (MDR) reversal at 3 uM concentration in MCF7-R cell line when co-administered with Paclitaxel. The experiment is classed as functional, Homo sapiens.
Experiment [7] deals with MDA-MB-435. Kind of experiment: Cytotoxicity was evaluated at 0.1 uM concentration in MDA 435/LCC6-MDR cell line when co-administered with Paclitaxel. The experiment is classed as functional, cell-based. Conditions: Homo sapiens.
Experiment [8] concerns MDA-MB-435. Kind of experiment: Compound was evaluated for multi-drug resistance (MDR) reversal at 0.1 uM concentration in MDA 435/LCC6-MDR cell line when co-administered with Paclitaxel. The experiment is classed as functional, Homo sapiens.
Experiment [9] relates to MDA-MB-435. Kind of experiment: Cytotoxicity was evaluated at 3 uM concentration in MDA 435/LCC6-MDR cell line when co-administered with Paclitaxel. The experiment is classed as functional, cell-based. Conditions: Homo sapiens.
The test system of experiment [10] is MDA-MB-435. As to the kind of experiment: Compound was evaluated for multi-drug resistance (MDR) reversal at 3 uM concentration in MDA 435/LCC6-MDR cell line when co-administered with Paclitaxel. The experiment is classed as functional, Homo sapiens.
In experiment [11] the test system is MCF7R. As to the kind of experiment: Cytotoxicity was evaluated in MCF7-R cell line. The experiment is classed as functional, cell-based. Conditions: Homo sapiens.
The test system of experiment [12] is MCF7R. Kind of experiment: Compound was evaluated for multi-drug resistance (MDR) reversal in MCF7-R cell line. The experiment is classed as functional, Homo sapiens.
The test system of experiment [13] is MDA-MB-435. As to the kind of experiment: Cytotoxicity was evaluated in MDA 435/LCC6-MDR cell line. The experiment is classed as functional, cell-based. Conditions: Homo sapiens.
In experiment [14] the test system is MDA-MB-435. As to the kind of experiment: Compound was evaluated for multi-drug resistance (MDR) reversal in MDA 435/LCC6-MDR cell line. The experiment is classed as functional, Homo sapiens.

What is called IC50 is the concentration that gives 50% inhibition. Regarding `CC(=O)O[C@@]12CO[C@@H]1C[C@H](OC(=O)CCc1ccc(C(=O)c3ccccc3)cc1)[C@@]1(C)C(=O)[C@H](OC(=O)CCc3ccc(C(=O)c4ccccc4)cc3)C3=C(C)[C@@H](O)C[C@@](O)([C@@H](OC(=O)c4ccccc4)[C@H]21)C3(C)C`, the IC50 in experiment [1] was determined as 2.6 nM. Further, the Reduction in [2] is recorded as 99.7%.

`CC(=O)O[C@H]1C(=O)[C@]2(C)[C@@H](OC(=O)/C=C/c3ccc4ccccc4c3)C[C@H]3OC[C@@]3(OC(C)=O)[C@H]2[C@H](OC(=O)c2ccccc2)[C@]2(O)C[C@H](O)C(C)=C1C2(C)C`: the results for the IC50 in experiment [1] and in [3] were 36 nM and 430 nM, respectively. Besides, the Reduction is 96% in experiment [2] and 50% in [4].

For the molecule `CC(=O)O[C@@]12CO[C@@H]1C[C@H](OC(=O)OCC(Cl)(Cl)Cl)[C@@]1(C)C(=O)[C@H](OC(=O)OCC(Cl)(Cl)Cl)C3=C(C)[C@@H](OC(=O)/C=C/c4ccc5ccccc5c4)C[C@@](O)([C@@H](OC(=O)c4ccccc4)[C@H]21)C3(C)C`, the IC50 in [5] was determined as 750 nM. Also, the Reduction in experiment [6] is recorded as 12%.

As for `CC(=O)O[C@H]1C(=O)[C@]2(C)[C@@H](OC(=O)CCc3ccc4ccccc4c3)C[C@H]3OC[C@@]3(OC(C)=O)[C@H]2[C@H](OC(=O)c2ccccc2)[C@]2(O)C[C@H](O)C(C)=C1C2(C)C`, the concentration for half-maximal inhibition (IC50) in [1] was found to be 33 nM. Besides, the Reduction in [2] is given as 96%.

Consider `CC(=O)O[C@H]1C(=O)[C@]2(C)[C@@H](OC(=O)CCC3CCC4CCCCC4C3)C[C@H]3OC[C@@]3(OC(C)=O)[C@H]2[C@H](OC(=O)C2CCCCC2)[C@]2(O)C[C@H](O)C(C)=C1C2(C)C` (stereo partly specified), for which the IC50 in experiment [1] stood at 160 nM. The Reduction in experiment [2] was 81%.

For `CC(=O)O[C@H]1C(=O)[C@]2(C)[C@@H](OC(=O)/C=C/c3ccc4ccccc4c3)C[C@H]3OC[C@@]3(OC(C)=O)[C@H]2[C@H](OC(=O)c2ccccc2)[C@]2(O)C[C@H](OC(C)=O)C(C)=C1C2(C)C`, the results for the half-inhibitory concentration (IC50) in experiment [5] and in [7] were 5.8 nM and 340 nM, respectively. For the same molecule, the values for the Reduction in experiment [6] and in [8] were 99.3% and 60%, respectively.

Consider `CC(=O)O[C@H]1C(=O)[C@]2(C)[C@@H](OC(=O)/C=C/c3ccc(C(=O)c4ccccc4)cc3)C[C@H]3OC[C@@]3(OC(C)=O)[C@H]2[C@H](OC(=O)c2ccccc2)[C@]2(O)C[C@H](OC(C)=O)C(C)=C1C2(C)C`, for which the values for the IC50 in [5], in [7] and in [9] were 2.6 nM, 52 nM and 69 nM, respectively. Besides, the Reduction in experiment [8] was 94%; in experiment [10], 92%.

`CC(=O)O[C@@]12CO[C@@H]1C[C@H](O)[C@@]1(C)C(=O)[C@H](O)C3=C(C)[C@@H](OC(=O)/C=C/c4ccc(C(=O)c5ccccc5)cc4)C[C@@](O)([C@@H](OC(=O)c4ccccc4)[C@H]21)C3(C)C`: in experiment [1], the IC50 came out at 860 nM. Further, the Reduction in experiment [2] worked out at 0%.

As to `CC(=O)O[C@H]1C(=O)[C@]2(C)[C@@H](OC(=O)c3ccc4ccccc4c3)C[C@H]3OC[C@@]3(OC(C)=O)[C@H]2[C@H](OC(=O)c2ccccc2)[C@]2(O)C[C@H](O)C(C)=C1C2(C)C`, in experiment [1], the IC50 is 21 nM.

Take `CC(=O)O[C@H]1C(=O)[C@]2(C)[C@@H](OC(C)=O)C[C@H]3OC[C@@]3(OC(C)=O)[C@H]2[C@H](OC(=O)/C=C/c2ccc(C(=O)c3ccccc3)cc2)[C@]2(O)C[C@H](OC(C)=O)C(C)=C1C2(C)C`: the half-maximal inhibitory concentration (IC50) in experiment [7] stood at 630 nM. For the same molecule, the Reduction in experiment [8] turned out to be 27%.

Regarding `CC(=O)O[C@@]12CO[C@@H]1C[C@H](O)[C@@]1(C)C(=O)[C@H](OC(=O)/C=C/c3ccc(C(=O)c4ccccc4)cc3)C3=C(C)[C@@H](O)C[C@@](O)([C@@H](OC(=O)c4ccccc4)[C@H]21)C3(C)C`, in experiment [1], the half-maximal inhibitory concentration (IC50) is 42 nM. For the same molecule, the Reduction in experiment [2] is 95%.

With `CC(=O)O[C@@]12CO[C@@H]1C[C@H](OC(=O)OCC(Cl)(Cl)Cl)[C@@]1(C)C(=O)[C@H](OC(=O)OCC(Cl)(Cl)Cl)C3=C(C)[C@@H](OC(=O)CCc4ccc5ccccc5c4)C[C@@](O)([C@@H](OC(=O)c4ccccc4)[C@H]21)C3(C)C`, in experiment [5], the IC50 stood at 860 nM. The Reduction in experiment [6] is reported as 0%.

Turning to `CC(=O)O[C@@]12CO[C@@H]1C[C@H](OC(=O)/C=C/c1ccc3ccccc3c1)[C@@]1(C)C(=O)[C@H](OC(=O)/C=C/c3ccc4ccccc4c3)C3=C(C)[C@@H](O)C[C@@](O)([C@@H](OC(=O)c4ccccc4)[C@H]21)C3(C)C`, the IC50 in [1] came to 470 nM. In addition, the Reduction in experiment [2] was determined as 45%.

For `CC(=O)O[C@@]12CO[C@@H]1C[C@H](OC(=O)OCC(Cl)(Cl)Cl)[C@@]1(C)C(=O)[C@H](OC(=O)OCC(Cl)(Cl)Cl)C3=C(C)[C@@H](OC(=O)/C=C/c4ccc(C(=O)c5ccccc5)cc4)C[C@@](O)([C@@H](OC(=O)c4ccccc4)[C@H]21)C3(C)C`, the IC50 in [5] came to 170 nM. In addition, the Reduction in experiment [6] is 80%.

Regarding `CC(=O)O[C@@]12CO[C@@H]1C[C@H](OC(=O)CCc1ccc(C(=O)c3ccccc3)cc1)[C@@]1(C)C(=O)[C@H](OC(=O)CCc3ccc(C(=O)c4ccccc4)cc3)C3=C(C)[C@@H](OC(=O)CCc4ccc(C(=O)c5ccccc5)cc4)C[C@@](O)([C@@H](OC(=O)c4ccccc4)[C@H]21)C3(C)C`, in [7], the half-maximal inhibitory concentration (IC50) stood at 860 nM. The Reduction in [8] is given as 0%.

For `CC(=O)O[C@@]12CO[C@@H]1C[C@H](OC(=O)/C=C/c1ccc3ccccc3c1)[C@@]1(C)C(=O)[C@H](OC(=O)CCc3ccc(C(=O)c4ccccc4)cc3)C3=C(C)[C@@H](O)C[C@@](O)([C@@H](OC(=O)c4ccccc4)[C@H]21)C3(C)C`, in experiment [1], the IC50 was 860 nM. In experiment [2], the Reduction is 0%.

As to `CC(=O)O[C@H]1C(=O)[C@]2(C)[C@@H](OC(C)=O)C[C@H]3OC[C@@]3(OC(C)=O)[C@H]2[C@H](OC(=O)CCc2ccc3ccccc3c2)[C@]2(O)C[C@H](OC(C)=O)C(C)=C1C2(C)C`, in [7], the IC50 was found to be 650 nM. Besides, the Reduction in experiment [8] was 24%.

For `CC(=O)O[C@H]1C(=O)[C@]2(C)[C@@H](OC(=O)CNC(=O)c3ccc4ccccc4c3)C[C@H]3OC[C@@]3(OC(C)=O)[C@H]2[C@H](OC(=O)c2ccccc2)[C@]2(O)C[C@H](O)C(C)=C1C2(C)C`, in experiment [1], the 50% inhibitory concentration (IC50) worked out at 500 nM. The Reduction in experiment [2] came to 42%.

For `CC(=O)O[C@@]12CO[C@@H]1C[C@H](O)[C@@]1(C)C(=O)[C@H](O)C3=C(C)[C@@H](OC(=O)/C=C/c4ccc5ccccc5c4)C[C@@](O)([C@@H](OC(=O)c4ccccc4)[C@H]21)C3(C)C`, in [1], the IC50 is 100 nM. In addition, in experiment [2], the Reduction came to 88%.

As for `CC(=O)O[C@H]1C(=O)[C@]2(C)[C@@H](OC(=O)/C=C/c3ccc(C(=O)c4ccccc4)cc3)C[C@H]3OC[C@@]3(OC(C)=O)[C@H]2[C@H](OC(=O)c2ccccc2)[C@]2(O)C[C@H](O)C(C)=C1C2(C)C`, the concentration for half-maximal inhibition (IC50) in [5] stood at 1.6 nM.

On to `CC(=O)O[C@@]12CO[C@@H]1C[C@H](O)[C@@]1(C)C(=O)[C@H](O)C3=C(C)[C@@H](OC(=O)CCc4ccc5ccccc5c4)C[C@@](O)([C@@H](OC(=O)c4ccccc4)[C@H]21)C3(C)C`, for which the concentration for half-maximal inhibition (IC50) in experiment [1] came out at 540 nM. Besides, the Reduction in experiment [2] came to 37%.

`CC(=O)O[C@H]1C(=O)[C@@]2(C)[C@H]([C@H](OC(=O)c3ccccc3)[C@]3(O)C[C@H](OC(=O)[C@H](O)[C@@H](NC(=O)c4ccccc4)c4ccccc4)C(C)=C1C3(C)C)[C@]1(OC(C)=O)CO[C@@H]1C[C@@H]2O` [PACLITAXEL]: the IC50 in experiment [11] and in experiment [13] was 860 nM in each case. For the same molecule, the Reduction in experiment [12] and in experiment [14] was 0% throughout.

Values taken from ChEMBL document CHEMBL1130620, “New taxanes as highly efficient reversal agents for multidrug resistance in cancer cells” (Bioorg Med Chem Lett, 1998).
